15 compounds from patent publication US20260028354A1, “TETRAHYDRONAPHTHALENE DERIVATIVES AS ESTROGEN RECEPTOR DEGRADERS” (REGENT OF THE UNIVERSITY OF MICHIGAN, priority 2022, published 2026) can be followed below.

One test concerns the target ER in T47D cells (Homo sapiens (Human), UniProt P03372). The test can be described thus: In-cell Western (ICW) ER degradation assay in T47D cells. Format: cell-based.
A further test addresses ER in MCF-7 cells (Homo sapiens (Human), UniProt P03372). The test can be described thus: In-cell Western (ICW) ER degradation assay in MCF-7 cells. Format: cell-based. Conditions: for Dmax: MCF7, read-out: MCF7 Dmax, MCF-7, maximal ER degradation, 16 hrs treatment; for DC50: MCF-7, ER degradation, 16 hrs treatment, read-out: MCF7 DC50.
The target of another test is CRBN/DDB1 (Homo sapiens (Human), UniProt Q96SW2). The format is binding. Conditions: His tagged CRBN+DDB1, Cy5-labeled Thalidomide probe, one hour; read-out: CRBN HTRF IC50. The procedure:
The binding potency was determined using HTRF assay technology (Perkin Elmer). Compounds were serially diluted in DMSO and […] volume was transferred to white 384-well plate.
Background: Time-resolved FRET reads energy transfer from a long-lived donor to a nearby acceptor.

For the next test, the system named is MCF-7 cells. The test can be described thus: CellTiter-Glo (CTG) cell proliferation assay in MCF-7 cells. Format: cell-based. Conditions: Homo sapiens, MCF7, 144 h, MCF-7 cell proliferation, Day 6. An excerpt: CellTiter-Glo® (CTG) Assays in MCF-7 and T47D Cell Lines.
In vitro Assay: MCF-7 and T47D CTG assay
For orientation: In ATP-based viability assays light output follows the ATP content of the culture.

ER in MCF-7 cells, sequence (P03372 whole entry): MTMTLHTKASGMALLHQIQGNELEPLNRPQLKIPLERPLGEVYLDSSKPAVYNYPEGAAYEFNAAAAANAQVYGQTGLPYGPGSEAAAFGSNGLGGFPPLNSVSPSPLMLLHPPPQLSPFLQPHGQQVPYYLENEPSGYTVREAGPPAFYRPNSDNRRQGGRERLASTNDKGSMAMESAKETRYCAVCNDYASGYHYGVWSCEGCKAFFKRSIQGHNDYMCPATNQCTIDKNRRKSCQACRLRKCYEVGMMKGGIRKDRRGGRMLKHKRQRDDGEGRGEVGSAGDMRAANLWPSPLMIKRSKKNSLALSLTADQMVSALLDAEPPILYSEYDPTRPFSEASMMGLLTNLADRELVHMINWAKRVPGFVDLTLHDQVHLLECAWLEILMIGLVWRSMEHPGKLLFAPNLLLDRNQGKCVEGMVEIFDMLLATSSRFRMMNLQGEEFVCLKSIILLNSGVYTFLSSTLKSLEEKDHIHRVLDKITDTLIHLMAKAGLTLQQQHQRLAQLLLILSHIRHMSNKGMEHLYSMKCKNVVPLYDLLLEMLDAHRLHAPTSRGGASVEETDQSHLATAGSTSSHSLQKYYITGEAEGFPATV
ER in T47D cells, sequence (P03372 whole entry): as above
CRBN/DDB1, sequence (Q96SW2 whole entry, species assumed): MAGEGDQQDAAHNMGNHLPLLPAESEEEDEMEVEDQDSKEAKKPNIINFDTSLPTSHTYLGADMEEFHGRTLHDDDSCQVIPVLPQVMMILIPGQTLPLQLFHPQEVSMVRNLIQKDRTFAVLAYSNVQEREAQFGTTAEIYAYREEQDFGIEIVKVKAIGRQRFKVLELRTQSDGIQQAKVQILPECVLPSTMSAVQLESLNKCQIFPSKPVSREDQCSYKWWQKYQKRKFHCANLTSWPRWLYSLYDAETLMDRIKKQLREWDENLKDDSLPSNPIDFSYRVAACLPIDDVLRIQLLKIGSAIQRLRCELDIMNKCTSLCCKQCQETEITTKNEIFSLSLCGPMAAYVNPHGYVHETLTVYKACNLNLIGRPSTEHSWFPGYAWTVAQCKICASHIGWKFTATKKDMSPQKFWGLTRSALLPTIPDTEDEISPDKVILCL
CRBN/DDB1, sequence (Q16531 whole entry partner, species assumed): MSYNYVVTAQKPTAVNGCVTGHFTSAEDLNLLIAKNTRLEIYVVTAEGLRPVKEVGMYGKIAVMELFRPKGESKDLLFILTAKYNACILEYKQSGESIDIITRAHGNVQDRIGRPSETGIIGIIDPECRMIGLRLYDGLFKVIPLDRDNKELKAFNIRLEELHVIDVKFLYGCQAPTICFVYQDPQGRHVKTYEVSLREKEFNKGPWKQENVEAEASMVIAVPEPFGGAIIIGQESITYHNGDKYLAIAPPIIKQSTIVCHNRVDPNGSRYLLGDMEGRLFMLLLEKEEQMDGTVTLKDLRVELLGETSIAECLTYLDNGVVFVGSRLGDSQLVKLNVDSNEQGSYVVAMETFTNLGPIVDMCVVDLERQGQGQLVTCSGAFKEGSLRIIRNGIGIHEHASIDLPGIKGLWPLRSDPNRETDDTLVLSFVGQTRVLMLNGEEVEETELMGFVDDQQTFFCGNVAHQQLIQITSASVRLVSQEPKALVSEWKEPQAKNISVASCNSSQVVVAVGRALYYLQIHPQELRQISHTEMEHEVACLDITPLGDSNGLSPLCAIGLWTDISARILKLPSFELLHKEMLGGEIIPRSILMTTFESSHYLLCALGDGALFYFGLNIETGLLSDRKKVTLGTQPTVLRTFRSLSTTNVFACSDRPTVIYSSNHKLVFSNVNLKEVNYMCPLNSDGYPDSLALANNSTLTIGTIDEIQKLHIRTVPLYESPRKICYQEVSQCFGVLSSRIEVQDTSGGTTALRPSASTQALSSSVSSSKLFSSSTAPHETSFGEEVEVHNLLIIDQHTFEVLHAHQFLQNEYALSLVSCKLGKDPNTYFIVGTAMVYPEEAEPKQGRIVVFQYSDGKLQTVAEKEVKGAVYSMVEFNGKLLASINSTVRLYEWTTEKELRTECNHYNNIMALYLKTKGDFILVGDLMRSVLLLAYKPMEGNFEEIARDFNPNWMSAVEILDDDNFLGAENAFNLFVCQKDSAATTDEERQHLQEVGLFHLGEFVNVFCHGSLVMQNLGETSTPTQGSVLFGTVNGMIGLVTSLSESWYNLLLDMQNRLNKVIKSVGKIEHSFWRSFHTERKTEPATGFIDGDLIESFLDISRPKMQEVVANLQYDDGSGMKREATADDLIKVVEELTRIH

Regarding `O=C1CC[C@H](N2Cc3c(ccc4c3OCC43CCN(CC4CC5(CCN(c6ccc([C@H]7c8ccc(O)cc8CC[C@H]7c7ccccc7)cc6F)CC5)C4)CC3)C2=O)C(=O)N1` [Compound A148, (S)-3-(1′-((7-(2-fluoro-4-((1S,2R)-6-hydroxy-2-phenyl-1,2,3,4-tetrahydronaphthalen-1-yl)phenyl)-7-azaspiro[3.5]nonan-2-yl)methyl)-6-oxo-6,8-dihydro-2H,7H-spiro[furo[2,3-e]isoindole-3,4′-piperidin]-7-yl)piperidine-2,6-dione], the DC50 (commonly the concentration at which degradation of the target reaches its halfway point) is less than 1 nM on ER in T47D cells (ER degradation, 16 hrs treatment) and less than 1 nM at ER in MCF-7 cells. Besides, the Dmax (usually the greatest extent of degradation seen) at ER in T47D cells (read-out: T47D Dmax, T47D, maximal ER degradation, 16 hrs treatment) is greater than 75%; at ER in MCF-7 cells it was 50 to 75%. Besides, at CRBN/DDB1, the IC50 (usually the concentration that gives 50% inhibition) was less than 50 nM.

Take `O=C1CC[C@H](N2Cc3c(ccc4c3OCC43CCN(CC4CCC5(CC4)CN(c4ccc([C@@H]6c7ccc(O)cc7CC[C@@H]6c6ccccc6)cc4)C5)CC3)C2=O)C(=O)N1` [Compound A177, (S)-3-(1′-((2-(4-((1R,2S)-6-hydroxy-2-phenyl-1,2,3,4-tetra-hydronaphthalen-1-yl)phenyl)-2-azaspiro[3.5]nonan-7-yl)-methyl)-6-oxo-6,8-dihydro-2H,7H-spiro[furo[2,3-e]iso-indole-3,4′-piperidin]-7-yl)-piperidine-2,6-dione]: at ER in MCF-7 cells, the Dmax was greater than 75% and the DC50 was less than 1 nM. The compound further came in with an IC50 in the test with MCF-7 cells greater than 100 nM.

As to `O=C1CC[C@H](N2Cc3cc4c(cc3C2=O)OCC42CCN(CC3CCC4(CC3)CN(c3ccc([C@@H]5c6ccc(O)cc6CC[C@@H]5c5ccccc5)cc3)C4)CC2)C(=O)N1` [Compound A178, (S)-3-(1′-((2-(4-((1R,2S)-6-hydroxy-2-phenyl-1,2,3,4-tetra-hydronaphthalen-1-yl)phenyl)-2-azaspiro[3.5]nonan-7-yl)-methyl)-7-oxo-5,7-dihydro-2H, 6H-spiro[furo[2,3-f]isoindole-3,4′-piperidin]-6-yl)piperidine-2,6-dione], at ER in MCF-7 cells, the Dmax was greater than 75% and the DC50 was less than 1 nM. The compound further yielded an IC50 with MCF-7 cells greater than 100 nM.

With `COc1cc(N2CCC3(CC2)C[C@H](CN2CCC4(CC2)COc2c4cc(C)c4c2CN([C@H]2CCC(=O)NC2=O)C4=O)CO3)c(F)cc1[C@@H]1c2ccc(O)cc2CC[C@@H]1c1ccccc1` [Compound A208, (3S)-3-[1′-[[(3R)-8-[2-fluoro-4-[(1S,2S)-6-hydroxy-2-phenyl-tetralin-1-yl]-5-methoxy-phenyl]-1-oxa-8-azaspiro[4.5]decan-3-yl]methyl]-5-methyl-6-oxo-spiro[2,8-dihydrofuro[2,3-e]isoindole-3,4′-piperidine]-7-yl]piperidine-2,6-dione], the IC50 in the test with MCF-7 cells lay in the range of 10 to 100 nM.

In the test with MCF-7 cells, `Cc1cc2c(c3c1C(=O)N([C@H]1CCC(=O)NC1=O)C3)OCC21CCN(C[C@@H]2CCC3(CCN(c4ccc([C@@H]5c6ccc(O)cc6CC[C@@H]5c5ccccc5)cc4)CC3)OC2)CC1` [Compound A209, (S)-3-(1′-(((S)-9-(4-((1R,2S)-6-hydroxy-2-phenyl-1,2,3,4-tetrahydronaphthalen-1-yl)phenyl)-1-oxa-9-azaspiro[5.5]undecan-3-yl)methyl)-5-methyl-6-oxo-6,8-dihydro-2H,7H-spiro[furo[2,3-e]isoindole-3,4′-piperidin]-7-yl)piperidine-2,6-dione] showed an IC50 of less than 10 nM.

`COc1cc(N2CCC(CCN3CCC4(CC3)COc3c4cc(C)c4c3CN([C@H]3CCC(=O)NC3=O)C4=O)CC2)c(F)cc1[C@@H]1c2ccc(O)cc2CC[C@@H]1c1ccccc1` [Compound A213, (S)-3-(1′-(2-(1-(2-fluoro-4-((1S,2S)-6-hydroxy-2-phenyl-1,2,3,4-tetrahydronaphthalen-1-yl)-5-methoxyphenyl)piper-idin-4-yl)ethyl)-5-methyl-6-oxo-6,8-dihydro-2H,7H-spiro [furo[2,3-e]isoindole-3,4′-piperidin]-7-yl)piperidine-2,6-dione]: the half-inhibitory concentration (IC50) in the test with MCF-7 cells is less than 10 nM.

Consider `Cc1cc2c(c3c1C(=O)N([C@H]1CCC(=O)NC1=O)C3)OCC21CCN(CC2CC3(CCN(c4ccc([C@@H]5c6ccc(O)cc6CC[C@@H]5c5ccccc5)cc4)CC3)C2)CC1` [Compound A214, (S)-3-(1′-((7-(4-((1R,2S)-6-hydroxy-2-phenyl-1,2,3,4-tetra-hydronaphthalen-1-yl)phenyl)-7-azaspiro[3.5]nonan-2-yl)-methyl)-5-methyl-6-oxo-6,8-dihydro-2H,7H-spiro[furo[2,3-c]isoindolc-3,4′-pipcridin]-7-yl)piperidine-2,6-dione], for which the IC50 with MCF-7 cells is less than 10 nM.

As for `COc1cc(N2CCC(CCN3CCC4(CC3)COc3c4cc4c(c3Cl)C(=O)N([C@H]3CCC(=O)NC3=O)C4)CC2)c(F)cc1[C@@H]1c2ccc(O)cc2CC[C@@H]1c1ccccc1` [Compound A217, (S)-3-(8-chloro-1′-(2-(1-(2-fluoro-4-((1S,2S)-6-hydroxy-2-phenyl-1,2,3,4-tetrahydronaph-thalen-1-yl)-5-methoxyphenyl)-piperidin-4-yl)ethyl)-7-oxo-5,7-dihydro-2H,6H-spiro[furo[2,3-f]isoindole-3,4′-piperidin]-6-yl)piperidine-2,6-dione], the IC50 with MCF-7 cells was less than 10 nM.

In the case of `COc1cc(N2CCC3(CC2)CC(CN2CCC4(CC2)COc2c4cc4c(c2C)C(=O)N([C@@H]2CCC(=O)NC2=O)C4)C3)c(F)cc1[C@@H]1c2ccc(O)cc2CC[C@@H]1c1ccccc1` [Compound A219, (R)-3-(1′-((7-(2-fluoro-4-((1S, 2S)-6-hydroxy-2-phenyl-1,2,3,4-tetrahydronaphthalen-1-yl)-5-methoxyphenyl)-7-aza-spiro[3.5]nonan-2-yl)methyl)-8-methyl-7-oxo-5,7-dihydro-2H,6H-spiro[furo[2,3-f]iso-indole-3,4′-piperidin]-6-yl)-piperidine-2,6-dione], the IC50 in the test with MCF-7 cells is less than 10 nM.

In the test with MCF-7 cells, `COc1cc(N2CCC3(CC2)CC(CN2CCC4(CC2)COc2c4cc4c(c2C)C(=O)N([C@H]2CCC(=O)NC2=O)C4)C3)c(F)cc1[C@@H]1c2ccc(O)cc2CC[C@@H]1c1ccccc1` [Compound A220, (S)-3-(1′-((7-(2-fluoro-4-((1S,2S)-6-hydroxy-2-phenyl-1,2,3,4-tetrahydronaphthalen-1-yl)-5-methoxyphenyl)-7-aza-spiro[3.5]nonan-2-yl)methyl)-8-methyl-7-oxo-5,7-dihydro-2H,6H-spiro[furo[2,3-f]iso-indole-3,4′-piperidin]-6-yl)-piperidine-2,6-dione] came in with an IC50 of less than 10 nM.

`COc1cc(N2CCC3(CC2)CC(CN2CCN4c5cc(Cl)c6c(c5OC[C@H]4C2)CN([C@H]2CCC(=O)NC2=O)C6=O)C3)c(F)cc1[C@@H]1c2ccc(O)cc2CC[C@@H]1c1ccccc1` [Compound A221, (S)-3-((R)-12-chloro-7-((7-(2-fluoro-4-((1S,2S)-6-hydroxy-2-phenyl-1,2,3,4-tetrahydronaph-thalen-1-yl)-5-methoxyphenyl)-7-azaspiro[3.5]nonan-2-yl)-methyl)-1-oxo-1,3,5,5a,6,7,8,9-octahydro-2H-pyrazino[1′,2′: 4,5][1,4]oxazino[2,3-e]isoindol-2-yl)piperidine-2,6-dione] returned a half-inhibitory concentration (IC50) with MCF-7 cells greater than 100 nM.

Take `COc1cc(N2CCC3(CC2)CC(CN2CCC4(CC2)COc2c4cc(OC)c4c2CN([C@@H]2CCC(=O)NC2=O)C4=O)C3)c(F)cc1[C@@H]1c2ccc(O)cc2CC[C@@H]1c1ccccc1` [Compound A223, (R)-3-(1′-((7-(2-fluoro-4-((1S,2S)-6-hydroxy-2-phenyl-1,2,3,4-tetrahydronaphthalen-1-yl)-5-methoxyphenyl)-7-azaspiro[3.5]nonan-2-yl)methyl)-5-methoxy-6-oxo-6,8-dihydro-2H,7H-spiro[furo[2,3-e]isoindole-3,4′-piperidin]-7-yl)piperidine-2,6-dione]: in the test on MCF-7 cells, the IC50 was less than 10 nM.

In turn, `COc1cc(N2CCC(CCN3CCN4c5cc(Cl)c6c(c5OC[C@H]4C3)CN([C@H]3CCC(=O)NC3=O)C6=O)CC2)c(F)cc1[C@@H]1c2ccc(O)cc2CC[C@@H]1c1ccccc1` [Compound A224, (S)-3-((R)-12-chloro-7-(2-(1-(2-fluoro-4-((1S,2S)-6-hydroxy-2-phenyl-1,2,3,4-tetrahydronaphthalen-1-yl)-5-methoxyphenyl)piperidin-4-yl)ethyl)-1-oxo-1,3,5,5a,6,7,8,9-octahydro-2H-pyrazino[1′,2′: 4,5][1,4]oxazino[2,3-e]isoindol-2-yl)piperidine-2,6-dione] showed an IC50 in the test on MCF-7 cells of 10 to 100 nM.

Turning to `COc1cc(N2CCC(CCN3CCC4(CC3)COc3c4cc(OC)c4c3CN([C@@H]3CCC(=O)NC3=O)C4=O)CC2)c(F)cc1[C@@H]1c2ccc(O)cc2CC[C@@H]1c1ccccc1` [Compound A225, (R)-3-(1′-(2-(1-(2-fluoro-4-((1S,2S)-6-hydroxy-2-phenyl-1,2,3,4-tetrahydronaphthalen-1-yl)-5-methoxyphenyl)piperidin-4-yl)ethyl)-5-methoxy-6-oxo-6,8-dihydro-2H,7H-spiro[furo[2,3-e]isoindole-3,4′-piperidin]-7-yl)piperidine-2,6-dione], the IC50 in the test with MCF-7 cells is less than 10 nM.

The compound `COc1cc(N2CCC3(CC2)CC(CN2CCN4c5cc(C)c6c(c5OC[C@H]4C2)CN([C@H]2CCC(=O)NC2=O)C6=O)C3)c(F)cc1[C@@H]1c2ccc(O)cc2CC[C@@H]1c1ccccc1` [Compound A228, (S)-3-((R)-7-((7-(2-fluoro-4-((1S,2S)-6-hydroxy-2-phenyl-1,2,3,4-tetrahydronaphthalen-1-yl)-5-methoxyphenyl)-7-aza-spiro[3.5]nonan-2-yl)methyl)-12-methyl-1-oxo-1,3,5,5a,6,7,8,9-octahydro-2H-pyrazino [1′,2′:4,5][1,4]oxazino[2,3-e]isoindol-2-yl)piperidine-2,6-dione] registered a 50% inhibitory concentration (IC50) in the test on MCF-7 cells of 10 to 100 nM.
